PubChem BioAssay (NCI)
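Results reflect a 48-hour exposure of cells in 96-well plates to compound at five concentrations. TGI marks complete inhibition of growth.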

Legend:
Assay in all cases: DTP human tumour cell line panel, 48 h
[1] = test system: M14 melanoma
[2] = test system: SF-539 CNS
[3] = test system: MDA-MB-231 breast
[4] = test system: HS 578T breast
[5] = test system: UO-31 renal
[6] = test system: NCI-H522 lung
[7] = test system: NCI-H23 lung
[8] = test system: IGROV1 ovarian
[9] = test system: EKVX NSCLC
[10] = test system: HL-60(TB) leukemia
[11] = test system: SK-MEL-28 melanoma
[12] = test system: NCI-H460 lung
[13] = test system: RXF 393 renal
[14] = test system: RPMI-8226 leukemia
[15] = test system: ACHN renal
[16] = test system: LOX IMVI melanoma
[17] = test system: NCI-H226 lung
[18] = test system: MOLT-4 leukemia
[19] = test system: U251 CNS
[20] = test system: KM12 colon
[21] = test system: SK-MEL-2 melanoma
[22] = test system: TK-10 renal
[23] = test system: HT29 colon
[24] = test system: MCF7 breast
[25] = test system: T-47D breast
[26] = test system: HOP-62 NSCLC
[27] = test system: DU-145 prostate
[28] = test system: SW-620 colon
[29] = test system: SK-MEL-5 melanoma
[30] = test system: MDA-N
[31] = test system: OVCAR-5 ovarian
[32] = test system: SF-268 CNS
[33] = test system: SF-295 CNS
[34] = test system: HCT-15 colon
[35] = test system: OVCAR-4 ovarian
[36] = test system: HCC-2998 colon
[37] = test system: SK-OV-3 ovarian
[38] = test system: 786-0 renal
[39] = test system: UACC-257 melanoma
[40] = test system: K-562 leukemia
[41] = test system: OVCAR-8 ovarian
[42] = test system: CCRF-CEM leukemia
[43] = test system: NCI/ADR-RES ovarian
[44] = test system: CAKI-1 renal
[45] = test system: MDA-MB-435
[46] = test system: HOP-92 NSCLC
[47] = test system: HCT-116 colon
[48] = test system: OVCAR-3 ovarian
[49] = test system: A498 renal
[50] = test system: PC-3 prostate

COc1ccc(C2=NN(C(=O)c3ccc(Cl)cc3)C(O)(c3cc(F)c(Cl)cc3Cl)C2)cc1OC (stereo not given)
TGI [1]: > 100 µM
TGI [2]: > 100 µM
TGI [3]: > 100 µM
TGI [4]: > 100 µM
TGI [5]: 10.9 µM
TGI [6]: > 100 µM
TGI [7]: > 100 µM
TGI [8]: > 100 µM
TGI [9]: > 100 µM
TGI [10]: 2.2 µM
TGI [11]: > 100 µM
TGI [12]: > 100 µM
TGI [13]: > 100 µM
TGI [14]: > 100 µM
TGI [15]: > 100 µM
TGI [16]: > 100 µM
TGI [17]: > 100 µM
TGI [18]: > 100 µM
TGI [19]: > 100 µM
TGI [20]: > 100 µM
TGI [21]: > 100 µM
TGI [22]: > 100 µM
TGI [23]: > 100 µM
TGI [24]: > 100 µM
TGI [25]: > 100 µM
TGI [26]: > 100 µM
TGI [27]: > 100 µM
TGI [28]: > 100 µM
TGI [29]: > 100 µM
TGI [30]: > 100 µM
TGI [31]: > 100 µM
TGI [32]: > 100 µM
TGI [33]: > 100 µM
TGI [34]: > 100 µM
TGI [35]: > 100 µM
TGI [36]: > 100 µM
TGI [37]: > 100 µM
TGI [38]: > 100 µM
TGI [39]: > 100 µM
TGI [40]: > 100 µM
TGI [41]: > 100 µM
TGI [42]: > 100 µM
TGI [43]: > 100 µM
TGI [44]: 98.4 µM
TGI [45]: > 100 µM
TGI [46]: > 100 µM
TGI [47]: > 100 µM
TGI [48]: > 100 µM
TGI [49]: > 100 µM
TGI [50]: > 100 µM
